According to patent US20100160454A1, “ANTIMICROBIAL AGENTS, COMPOSITIONS AND PRODUCTS CONTAINING THE SAME, AND METHODS OF USING THE COMPOSITIONS AND PRODUCTS” (Eastman Chemical Company, priority 2008, published 2010):

Assays:
Type in all cases: cell-based
[1] = tested on: Candida albicans Wild type; test: Microbiological challenge testing in BPW broth, graded subculture counts; details: C. albicans
Procedure: The microorganisms in the table below were used in challenge tests. They were either ATCC (American Type Culture Collection) or “wild type” as indicated. Wild type organisms were problematic organisms previously isolated from chemical products.
All of the microorganisms were grown in Tryptose Soy Broth (TSB), DIFCO™ available from Becton, Dickinson and Company, containing 1% dextrose. Candida albicans and Aspergillus niger, were incubated at 22° C.+/−2° C. for at least 96 hours. All bacteria were incubated at 35° C.+/−2° C. in a humidified incubator for at least 96 hours.
Candida albicans and Aspergillus niger were also grown on Sabouraud Dextrose Agar (SABD) at 22° C. for 7 to 14 days or until full sporulation was achieved.
The following procedure was followed to determine the amount of each challenge material (inoculum broth) needed to produce a 10^8 CFU/mL challenge, which is equivalent to a final test-sample microbial concentration of 10^5 to 10^6 CFU/mL (CFU=colony forming units).
Using a sterile pipette, 1 mL of the growth from each TSB culture was transferred into tubes of 9 mL buffered water (pH 7.2 phosphate buffer) and mixed thoroughly. This was repeated to make serial 1:10 dilutions. Then, 0.1 mL of each sample and dilution was inoculated onto agar plates to produce the equivalent of a further 1:10 dilution. (C. albicans and A. niger were inoculated onto SABD and bacteria were inoculated onto Plate Count Agar (PCA), DIFCO™ available from Becton, Dickinson and Company.) (The normal volume plated for most samples was 0.1 mL. Some samples that could be very low in micro-organisms (high dilutions) were plated using 0.5 mL of inoculum, in order to produce reproducible counts.) The samples were distributed on the plates using the spread-plate technique. The spread-plate technique is carried out by spreading the sample over the entire plate surface using a sterile spreading rod while rotating the plate with a rotary auto-plater. After the inoculum was absorbed completely by the agar, each plate was inverted and incubated (fungi at 22° C.+/−2° C. and bacteria at 35° C.+/−2° C.).
After incubation for at least 48 hours, colonies that had developed on the agar plates were counted (CFU) and recorded with the corresponding dilution. If counting had to be delayed temporarily, plates were refrigerated, preferably no more than 24 hours, until they could be counted. The number of CFU/mL was determined by multiplying the plate count by the dilution factor of the plate counted.
Turbidity in Nepholemetric Turbidity Units (NTU) was measured for each serial dilution using the HF-Micro 100 Model Turbidimeter. For each microorganism, the plate counts were compared to the turbidity readings.
On the day of challenge, the Candida albicans inoculum broth was poured through nonabsorbent sterile gauze and centrifuged. The […] was then diluted with buffered water (pH 7.2 phosphate buffer) until the desired turbidity was reached. Using a hemocytometer, a determination was made whether the challenge contained the desired concentration. Dilutions were made through 1.0×10^8 and three SABD spread plates were inoculated with 0.1 mL of each dilution. The plates were incubated for at least 48 hours and challenge counts were confirmed.
Control substrates (“broth alone”) were prepared for each microorganism separately in triplicate by adding 13.5 mL of Buffered Peptone Water broth (BPW) containing 1% dextrose to each 20-mL glass tube, then adding 1.5 mL challenge material to produce a final concentration at time zero of 10^5 to 10^6 CFU/mL and a total volume of 15 mL.

[2] = tested on: Malassezia furfur (ATCC 96809); test: Challenge testing against pathogenic fungi, growth rating in broth tubes; set-up: key: 0: No visible growth; 1: Some growth in tube; 2: Moderate growth in tube; 3: Good growth in tube; 4: Extreme growth in tube
Outline: (§1)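 Fungi grown in Sabouraud dextrose broth (M. furfur with 2% olive oil/0.2% Tween 80), 22±2 °C; tubes of 1,4-CHDM-D90 dilutions inoculated, static incubation, subcultured at 3, 14, 30 days, triplicate. Growth rated 0–4: visually (M. canis), INT redox dye (T. rubrum), pellicle formation (M. furfur); 30-day MIC.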

[3] = tested on: Trichophyton rubrum (ATCC 10218); test: as above; set-up: key: 0: No visible growth; 1: Some growth in tube; 2: Moderate growth in tube; 3: Good growth in tube; 4: Extreme growth in tube
Outline: as §1

Question: What does the source list for CC1(C)C(O)C(C)(C)C1O (stereo not drawn) [TMCBD, 2,2,4,4-tetramethyl-1,3-cyclobutanediol]?
Answer: Grade ([1]; 0.5% (wt/vol), 3 day): 4 (1000 to 10,000 colonies countable (thus 10,000 CFU/mL to 100,000 CFU/mL)); Grade ([1]; 0.5% (wt/vol), 14 day): 4 (1000 to 10,000 colonies countable (thus 10,000 CFU/mL to 100,000 CFU/mL)); Grade ([1]; 0.5% (wt/vol), 30 day): 4 (1000 to 10,000 colonies countable (thus 10,000 CFU/mL to 100,000 CFU/mL)); Grade ([1]; 1.25% (wt/vol), 3 day): 3 (100 to 1000 colonies (thus 1000 to 10,000 CFU/mL)); Grade ([1]; 1.25% (wt/vol), 14 day): 4 (1000 to 10,000 colonies countable (thus 10,000 CFU/mL to 100,000 CFU/mL)); Grade ([1]; 1.25% (wt/vol), 30 day): 4 (1000 to 10,000 colonies countable (thus 10,000 CFU/mL to 100,000 CFU/mL)); Grade ([1]; 2.5% (wt/vol), 3 day): 3 (100 to 1000 colonies (thus 1000 to 10,000 CFU/mL)); Grade ([1]; 2.5% (wt/vol), 14 day): 2 (52 to 100 colonies counted (thus 520 to 1000 CFU/mL)); Grade ([1]; 2.5% (wt/vol), 30 day): 2 (52 to 100 colonies counted (thus 520 to 1000 CFU/mL)); Grade ([1]; 5.0% (wt/vol), 3 day): 2 (52 to 100 colonies counted (thus 520 to 1000 CFU/mL)); Grade ([1]; 5.0% (wt/vol), 14 day): 0; Grade ([1]; 5.0% (wt/vol), 30 day): 0; M. furfur growth rating, 3 day ([2]; 0.5% weight/volume): 0; M. furfur growth rating, 14 day ([2]; 0.5% weight/volume): 1; M. furfur growth rating, 30 day ([2]; 0.5% weight/volume): 2; M. furfur growth rating, 3 day ([2]; 1.25% weight/volume): 0; M. furfur growth rating, 14 day ([2]; 1.25% weight/volume): 1; M. furfur growth rating, 30 day ([2]; 1.25% weight/volume): 2; M. furfur growth rating, 3 day ([2]; 2.5% weight/volume): 0; M. furfur growth rating, 14 day ([2]; 2.5% weight/volume): 0; M. furfur growth rating, 30 day ([2]; 2.5% weight/volume): 0; M. furfur growth rating, 3 day ([2]; 5.0% weight/volume): 0; M. furfur growth rating, 14 day ([2]; 5.0% weight/volume): 0; M. furfur growth rating, 30 day ([2]; 5.0% weight/volume): 0; T. rubrum growth rating, 3 day ([3]; 0.5% weight/volume): 1; T. rubrum growth rating, 14 day ([3]; 0.5% weight/volume): 1; T. rubrum growth rating, 30 day ([3]; 0.5% weight/volume): 0; T. rubrum growth rating, 3 day ([3]; 1.25% weight/volume): 0; T. rubrum growth rating, 14 day ([3]; 1.25% weight/volume): 0; T. rubrum growth rating, 30 day ([3]; 1.25% weight/volume): 1; T. rubrum growth rating, 3 day ([3]; 2.5% weight/volume): 0; T. rubrum growth rating, 14 day ([3]; 2.5% weight/volume): 0; T. rubrum growth rating, 30 day ([3]; 2.5% weight/volume): 0; T. rubrum growth rating, 3 day ([3]; 5.0% weight/volume): 0; T. rubrum growth rating, 14 day ([3]; 5.0% weight/volume): 0; T. rubrum growth rating, 30 day ([3]; 5.0% weight/volume): 0
